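A five-concentration, 48-hour dose response in 96-well plates underlies each endpoint, interpolated linearly between surrounding concentrations. TGI: total growth inhibition.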
Legend:
Experiment in all cases: NCI-60 cell line screen, 48 h
[1] = tested on: 786-0 renal
[2] = tested on: A498 renal
[3] = tested on: A549 NSCLC
[4] = tested on: ACHN renal
[5] = tested on: CAKI-1 renal
[6] = tested on: CCRF-CEM leukemia
[7] = tested on: COLO 205 colon
[8] = tested on: DLD-1 colon
[9] = tested on: DMS 114 small cell lung
[10] = tested on: DMS 273 small cell lung
[11] = tested on: EKVX NSCLC
[12] = tested on: HCT-116 colon
[13] = tested on: HCT-15 colon
[14] = tested on: HL-60(TB) leukemia
[15] = tested on: HOP-18 NSCLC
[16] = tested on: HOP-62 NSCLC
[17] = tested on: HOP-92 NSCLC
[18] = tested on: HT29 colon
[19] = tested on: IGROV1 ovarian
[20] = tested on: K-562 leukemia
[21] = tested on: KM12 colon
[22] = tested on: KM20L2 colon
[23] = tested on: LOX IMVI melanoma
[24] = tested on: LXFL 529 NSCLC
[25] = tested on: M14 melanoma
[26] = tested on: M19-MEL melanoma
[27] = tested on: MALME-3M melanoma
[28] = tested on: MOLT-4 leukemia
[29] = tested on: NCI-H23 lung
[30] = tested on: NCI-H460 lung
[31] = tested on: NCI-H522 lung
[32] = tested on: OVCAR-3 ovarian
[33] = tested on: OVCAR-4 ovarian
[34] = tested on: OVCAR-5 ovarian
[35] = tested on: OVCAR-8 ovarian
[36] = tested on: RPMI-8226 leukemia
[37] = tested on: SF-268 CNS
[38] = tested on: SF-295 CNS
[39] = tested on: SF-539 CNS
[40] = tested on: SK-MEL-2 melanoma
[41] = tested on: SK-MEL-28 melanoma
[42] = tested on: SK-MEL-5 melanoma
[43] = tested on: SK-OV-3 ovarian
[44] = tested on: SN12C renal
[45] = tested on: SNB-19 CNS
[46] = tested on: SNB-75 CNS
[47] = tested on: SNB-78 CNS
[48] = tested on: SW-620 colon
[49] = tested on: TK-10 renal
[50] = tested on: U251 CNS
[51] = tested on: UACC-257 melanoma
[52] = tested on: UACC-62 melanoma
[53] = tested on: UO-31 renal
[54] = tested on: XF 498 CNS
[55] = tested on: HCC-2998 colon
[56] = tested on: NCI-H226 lung
[57] = tested on: RXF 393 renal

CCCN1CN(C(C(=O)N[C@@H]2C(=O)N3C2SC(C)(C)C3C(=O)O)c2ccccc2)CSC1=S (stereo not given in full)
TGI [1]: > 100 µM
TGI [2]: > 100 µM
TGI [3]: > 100 µM
TGI [4]: > 100 µM
TGI [5]: > 100 µM
TGI [6]: > 100 µM
TGI [7]: > 100 µM
TGI [8]: > 100 µM
TGI [9]: 94.1 µM
TGI [10]: > 100 µM
TGI [11]: > 100 µM
TGI [12]: > 100 µM
TGI [13]: > 100 µM
TGI [14]: > 100 µM
TGI [15]: > 100 µM
TGI [16]: > 100 µM
TGI [17]: > 100 µM
TGI [18]: > 100 µM
TGI [19]: > 100 µM
TGI [20]: > 100 µM
TGI [21]: > 100 µM
TGI [22]: > 100 µM
TGI [23]: > 100 µM
TGI [24]: > 100 µM
TGI [25]: > 100 µM
TGI [26]: > 100 µM
TGI [27]: > 100 µM
TGI [28]: > 100 µM
TGI [29]: > 100 µM
TGI [30]: > 100 µM
TGI [31]: 81.5 µM
TGI [32]: > 100 µM
TGI [33]: > 100 µM
TGI [34]: > 100 µM
TGI [35]: > 100 µM
TGI [36]: > 100 µM
TGI [37]: > 100 µM
TGI [38]: > 100 µM
TGI [39]: > 100 µM
TGI [40]: > 100 µM
TGI [41]: > 100 µM
TGI [42]: > 100 µM
TGI [43]: > 100 µM
TGI [44]: > 100 µM
TGI [45]: > 100 µM
TGI [46]: > 100 µM
TGI [47]: > 100 µM
TGI [48]: 31.7 µM
TGI [49]: > 100 µM
TGI [50]: > 100 µM
TGI [51]: > 100 µM
TGI [52]: > 100 µM
TGI [53]: > 100 µM
TGI [54]: > 100 µM

COc1cc(-c2cc(=O)c3ccccc3o2)ccc1N
TGI [1]: > 100 µM
TGI [2]: > 100 µM
TGI [3]: > 100 µM
TGI [4]: > 100 µM
TGI [5]: 77.5 µM
TGI [6]: > 100 µM
TGI [7]: > 100 µM
TGI [9]: > 100 µM
TGI [10]: > 100 µM
TGI [11]: > 100 µM
TGI [55]: > 100 µM
TGI [12]: > 100 µM
TGI [13]: > 100 µM
TGI [14]: 71.5 µM
TGI [15]: > 100 µM
TGI [16]: > 100 µM
TGI [17]: > 100 µM
TGI [18]: > 100 µM
TGI [19]: > 100 µM
TGI [20]: > 100 µM
TGI [21]: > 100 µM
TGI [22]: > 100 µM
TGI [23]: > 100 µM
TGI [24]: > 100 µM
TGI [25]: > 100 µM
TGI [26]: > 100 µM
TGI [27]: > 100 µM
TGI [28]: > 100 µM
TGI [56]: 96.6 µM
TGI [29]: > 100 µM
TGI [30]: > 100 µM
TGI [31]: > 100 µM
TGI [32]: > 100 µM
TGI [33]: > 100 µM
TGI [34]: > 100 µM
TGI [35]: > 100 µM
TGI [36]: > 100 µM
TGI [57]: > 100 µM
TGI [37]: > 100 µM
TGI [38]: > 100 µM
TGI [39]: > 100 µM
TGI [40]: > 100 µM
TGI [41]: > 100 µM
TGI [42]: > 100 µM
TGI [43]: > 100 µM
TGI [44]: > 100 µM
TGI [45]: > 100 µM
TGI [46]: 83.2 µM
TGI [47]: > 100 µM
TGI [48]: > 100 µM
TGI [49]: > 100 µM
TGI [50]: > 100 µM
TGI [51]: > 100 µM
TGI [52]: > 100 µM
TGI [53]: > 100 µM
TGI [54]: > 100 µM

From PubChem BioAssay (NCI)
